We go through 5 compounds from patent publication US8497272B2, “Compounds for treating proliferative disorders” (Synta Pharmaceuticals Corp., priority 2006, dated 2013).

This test deals with inducible human Hsp70. In words: Hsp70 RNA induction by quantitative PCR analysis in Ramos B cells. The class given is cell-based. The note with it: 500 nM compound, 6 hours, Hsp70 RNA relative to gapdh; for % induction relative to Compound X: Compound X set to 100%; for fold induction at 0.5 µM: Homo sapiens, read-out: fold induction over DMSO. The protocol:
The ability of the compounds of the invention to induce Hsp70 RNA induction by quantitative PCR analysis was examined. Ramos B cells were treated with 500 nM each compound for 6 hours and the RNA was isolated from the cells. Quantitative PCR was performed as described below:
Details for Quantitative PCR are as follows:
500 ng of RNA from each sample was used for cDNA synthesis using iScript cDNA Synthesis Kit (Biorad, Cat#170-8891). 1 ul of cDNA mixture was used with the iQ SYBR Green Supermix (Biorad, Cat#170-8882) to perform quantitative PCR in an iCycler machine (Biorad) using standard protocols. QPCR for each sample/time point was performed in duplicate. The following primers for inducible human Hsp70 and gapdh were used: […]
Ct values were obtained from the iCycler program and used in an equation (2^−ΔΔCT) for determining the amount of target relative to gapdh expression. This compares the relative expression of Hsp70 to the corresponding levels of gapdh in each sample. Duplicate wells were averaged. The amount of N-Malonyl-bis(N′-methyl-N′ thiobenzoylhydrazide) (Compound X) induction of Hsp70 was set to 100% and the percent of induction of Hsp70 by the compounds of the invention was determined relative to 100%.

Each structure is given as a SMILES string.

For `CN(NC(=O)CC(=O)NN(C)C(=S)Nc1ccccc1)C(=S)Nc1ccccc1` [Compound 67], the “% induction relative to Compound X” value amounted to 0.09% and the fold induction at 0.5 µM is 0.22.

`CN(NC(=O)CC(=O)NN(C)C(=S)NC1CC1)C(=S)NC1CC1` [Compound 69]: the “% induction relative to Compound X” value amounted to 0.12% and the fold induction at 0.5 µM is 0.3.

Take `COC(=S)N(C)NC(=O)CC(=O)NN(C)C(=S)OC` [Compound 70]: the “% induction relative to Compound X” value is listed as 0.57% and the fold induction at 0.5 µM was found to be 1.41.

Turning to `CN(NC(=O)CC(=O)NN(C)c1nccs1)c1nccs1` [Compound 71], the “% induction relative to Compound X” value amounted to 0.33% and the fold induction at 0.5 µM stood at 0.87.

Consider `CN(NC(=O)c1cc(=O)cc(C(=O)NN(C)C(=S)c2ccccc2)o1)C(=S)c1ccccc1` [Compound 74, N′2,N′6-dimethyl-4-oxo-N′2,N′6-di(phenylcarbonothioyl)-4H-pyran-2,6-dicarbohydrazide], for which the “% induction relative to Compound X” value was 0.22% and the fold induction at 0.5 µM came out at 0.59.
